For the assay, the target named is T1, Ba/F3-FL-TYK2-P760L cells (Homo sapiens, UniProt P29597, P760L, cells depend on it).
T1 construct: BaF3-FL-T2P760L (nM)
Briefly: Anti-proliferative assay, Ba/F3-FL-TYK2-P760L cells (Cell-Titer Glo). Format: cell-based. The conditions noted are these: 72 h, read-out: BaF3-FL-T2P760L IC50. The method, then:
Anti-Proliferative Assay Dimerization domain of Tel protein fused with JAK kinase domain was permanently transduced into Ba/F3 cells, whose proliferation is dependent on JAK activity in the absence of IL-3 induction. These engineered Ba/F3 cells (Ba/F3-FL-TYK2-[…], Ba/F3-TEL-TYK2 and Ba/F3-TEL-JAK2) were used to monitor JAK inhibitory activities of the compounds in the cellular. […] Cells were seeded at 2000/well of white flat bottom 96-well plates. The well containing medium only was used as background control. After 24 h growth, cells were treated with compounds. The test compounds were dissolved in DMSO to a stock concentration of 20 mM. 3-fold serially diluted compounds for 9 concentrations with top concentration of 20 μM was added into the each well. […] The cells continued to grow at 37° C. in 5% CO2 for 72 h after compound treatment. The viability was measured by cellular ATP determination using the Cell-Titer Glo luciferase reagent (Promega). The Luminescence value was recorded by a multi-label reader Envision (PerkinElmer).

A value given as a limit tells only on which side of the number the result lay.

T1 sequence (P29597 whole entry P760L): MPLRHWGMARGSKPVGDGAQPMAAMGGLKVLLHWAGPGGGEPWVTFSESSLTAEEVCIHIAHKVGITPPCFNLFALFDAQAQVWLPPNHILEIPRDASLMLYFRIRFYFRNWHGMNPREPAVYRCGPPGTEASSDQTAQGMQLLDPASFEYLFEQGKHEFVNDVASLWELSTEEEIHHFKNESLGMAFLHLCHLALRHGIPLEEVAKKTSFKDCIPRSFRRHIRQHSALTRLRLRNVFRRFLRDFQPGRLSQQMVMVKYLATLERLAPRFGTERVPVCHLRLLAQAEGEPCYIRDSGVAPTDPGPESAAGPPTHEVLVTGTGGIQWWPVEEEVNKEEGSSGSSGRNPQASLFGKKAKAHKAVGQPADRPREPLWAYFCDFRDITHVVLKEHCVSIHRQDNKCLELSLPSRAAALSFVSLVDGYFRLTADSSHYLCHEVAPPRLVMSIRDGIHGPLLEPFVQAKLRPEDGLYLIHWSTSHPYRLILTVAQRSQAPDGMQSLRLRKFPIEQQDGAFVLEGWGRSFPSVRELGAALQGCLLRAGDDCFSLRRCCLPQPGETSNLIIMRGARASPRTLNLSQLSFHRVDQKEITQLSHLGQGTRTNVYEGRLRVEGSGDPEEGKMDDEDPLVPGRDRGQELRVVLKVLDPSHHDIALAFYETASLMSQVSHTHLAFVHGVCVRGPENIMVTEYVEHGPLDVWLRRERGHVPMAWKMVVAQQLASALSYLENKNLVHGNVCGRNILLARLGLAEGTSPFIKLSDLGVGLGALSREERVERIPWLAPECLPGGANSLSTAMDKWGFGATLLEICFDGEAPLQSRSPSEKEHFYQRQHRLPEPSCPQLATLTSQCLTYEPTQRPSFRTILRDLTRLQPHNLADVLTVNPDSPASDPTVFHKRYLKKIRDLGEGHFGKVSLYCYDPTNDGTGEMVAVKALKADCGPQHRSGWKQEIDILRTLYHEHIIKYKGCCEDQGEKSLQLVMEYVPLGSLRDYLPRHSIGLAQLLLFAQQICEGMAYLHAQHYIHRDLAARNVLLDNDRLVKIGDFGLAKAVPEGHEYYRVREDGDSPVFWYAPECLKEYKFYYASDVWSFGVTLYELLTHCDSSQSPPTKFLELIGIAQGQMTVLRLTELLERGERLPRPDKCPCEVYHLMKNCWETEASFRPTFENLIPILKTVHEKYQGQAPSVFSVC

For `[2H]C([2H])([2H])NC(=O)c1cnc(NC(=O)C2CC2)cc1Nc1csc2cnn(CC(C)OC)c(=O)c12` (stereo not shown) [Example 181, 6-(Cyclopropanecarboxamido)-4-((5-(2-methoxypropyl)-4-oxo-4,5-dihydrothieno[2,3-d]pyridazin-3-yl)amino)-N-(methyl-d3)nicotinamide], the GI50 was found to be 1900 nM.
Under `[2H]C([2H])([2H])NC(=O)c1cnc(NC(=O)C2CC2)cc1Nc1ccc2cnn(C(C)C)c2c1OC([2H])([2H])[2H]` [Example 133, 6-(Cyclopropanecarboxamido)-4-((1-isopropyl-7-(methoxy-d3)-1H-indazol-6-yl)amino)-N-(methyl-d3)nicotinamide] stands 394 nM; under `[2H]C([2H])([2H])NC(=O)c1cnc(NC(=O)[C@H]2C[C@H](C#N)C2)cc1Nc1ccc2cnn(CC)c2c1OC` [Example 128B, 6-((Trans)-3-cyanocyclobutane-1-carboxamido)-4-((1-ethyl-7-methoxy-1H-indazol-6-yl)amino)-N-(methyl-d3)nicotinamide], 1710 nM.
For the molecule `[2H]C([2H])([2H])NC(=O)c1cnc(NC(=O)C2CC2)cc1Nc1csc2c(C)nn(CC)c(=O)c12` [Example 187, 6-(Cyclopropanecarboxamido)-4-((5-ethyl-7-methyl-4-oxo-4,5-dihydrothieno[2,3-d]pyridazin-3-yl)amino)-N-(methyl-d3)nicotinamide], the GI50 is 442 nM.
As for `CNC(=O)c1cnc(NC(=O)C2CC2)nc1Nc1cn(C)c2ccn(C)c(=O)c12` [Example 1, 2-(Cyclopropanecarboxamido)-4-((1,5-dimethyl-4-oxo-4,5-dihydro-1H-pyrrolo[3,2-c]pyridin-3-yl)amino)-N-methylpyrimidine-5-carboxamide], the GI50 is 483 nM.
For `[2H]C([2H])([2H])NC(=O)c1cnc(NC(=O)C2CC2)cc1Nc1cn(C)c2ccn([C@H]3CCOC3)c(=O)c12` [Example 115, 6-(Cyclopropanecarbonylamino)-4-[[1-methyl-4-oxo-5-[(3S)-tetrahydrofuran-3-yl]pyrrolo[3,2-c]pyridin-3-yl]amino]-N-(methyl-d3)pyridine-3-carboxamide], the GI50 amounted to 1100 nM.
For the molecule `CNC(=O)c1cnc(NC(=O)C2CC2)nc1Nc1cccc(OC2CCOCC2)c1OC` [Example 7, 2-(Cyclopropanecarboxamido)-4-((2-methoxy-3-((tetrahydro-2H-pyran-4-yl)oxy)phenyl)amino)-N-methylpyrimidine-5-carboxamide], the GI50 stood at 8020 nM.
The result for `[2H]C([2H])([2H])NC(=O)c1cnc(NC(=O)C2CC2)cc1Nc1cn(C)c2ccn(CCOC)c(=O)c12` [Example 112, 6-(Cyclopropanecarboxamido)-4-((5-(2-methoxyethyl)-1-methyl-4-oxo-4,5-dihydro-1H-pyrrolo[3,2-c]pyridin-3-yl)amino)-N-(methyl-d3)nicotinamide] reads 477 nM; that for `[2H]C([2H])([2H])NC(=O)c1cnc(Nc2cnn(C)c2)nc1Nc1ccc2cnn(CC)c2c1OC([2H])([2H])[2H]` [Example 136, 4-((1-Ethyl-7-(methoxy-d3)-1H-indazol-6-yl)amino)-N-(methyl-d3)-2-((1-methyl-1H-pyrazol-4-yl)amino)pyrimidine-5-carboxamide], 326 nM; that for `[2H]C([2H])([2H])NC(=O)c1nnc2cc1Nc1cc(cc(-c3nnc(C)o3)c1OC)COCc1nc(ccc1F)N2` [Example 90, 18-Fluoro-10-methoxy-N-(methyl-d3)-11-(5-methyl-1,3,4-oxadiazol-2-yl)-15-oxa-2,4,5,8,21-pentaazatetracyclo[15.3.1.1^{3,7}.1^{9,13}]tricosa-1(20),3,5,7(23),9(22),10,12,17(21),18-nonaene-6-carboxamide], 126 nM.
On to `[2H]C([2H])([2H])NC(=O)c1cnc(NC(=O)C2(C(F)(F)F)CC2)cc1Nc1cn(C)c2ccn(CC)c(=O)c12` [Example 104, 4-[(5-Ethyl-1-methyl-4-oxo-pyrrolo[3,2-c]pyridin-3-yl)amino]-N-(methyl-d3)-6-[[1-(trifluoromethyl)cyclopropanecarbonyl]amino]pyridine-3-carboxamide], for which the GI50 is 2420 nM.
The result for `[2H]C([2H])([2H])NC(=O)c1cnc(Nc2cnn(C3CC3)c2)nc1Nc1cccc(-c2ncn(C)n2)c1OC` [Example 2, 2-[(1-Cyclopropylpyrazol-4-yl)amino]-4-[2-methoxy-3-(1-methyl-1,2,4-triazol-3-yl)anilino]-N-(trideuteromethyl)pyrimidine-5-carboxamide] reads 199 nM.
On to `CNC(=O)c1cnc(NC(=O)C2CC2(F)F)nc1Nc1cccc(-c2ncn(C)n2)c1OC` (stereo not shown) [Example 64, 2-(2,2-Difluorocyclopropane-1-carboxamido)-4-((2-methoxy-3-(1-methyl-1H-1,2,4-triazol-3-yl)phenyl)amino)-N-methylpyrimidine-5-carboxamide], for which the GI50 was determined as 2040 nM.
The result for `[2H]C([2H])([2H])NC(=O)c1cnc(NC(=O)C2(C(F)(F)F)CC2)cc1Nc1ccc2cnn(CC)c2c1OC` [Example 238, 4-((1-Ethyl-7-methoxy-1H-indazol-6-yl)amino)-N-(methyl-d3)-6-(1-(trifluoromethyl)cyclopropane-1-carboxamido)nicotinamide] reads above 5000 nM; that for `[2H]C([2H])([2H])NC(=O)c1cnc(NC(=O)C2CC2)cc1Nc1cn(C)c2ccn(CC3CC3)c(=O)c12` [Example 106, 6-(Cyclopropanecarboxamido)-4-((5-(cyclopropylmethyl)-1-methyl-4-oxo-4,5-dihydro-1H-pyrrolo[3,2-c]pyridin-3-yl)amino)-N-(methyl-d3)nicotinamide], 206 nM.
The result for `CNC(=O)c1cnc(NC(=O)C2CC2)cc1Nc1cn(CCOC)c2ccn([C@H](C)C(F)(F)F)c(=O)c12` (single isomer, unassigned) [Example 201A, (R*)-6-(Cyclopropanecarboxamido)-4-((1-(2-methoxyethyl)-4-oxo-5-(1,1,1-trifluoropropan-2-yl)-4,5-dihydro-1H-pyrrolo[3,2-c]pyridin-3-yl)amino)-N-(methyl-d3)nicotinamide] reads 241 nM.
Turning to `CCn1ncc2scc(Nc3cc(NC(=O)C4CC4)ncc3C(=O)OC)c2c1=O` [Example 178, Methyl 6-(cyclopropanecarboxamido)-4-((5-ethyl-4-oxo-4,5-dihydrothieno[2,3-d]pyridazin-3-yl)amino)nicotinate], the GI50 came to 287 nM.
Turning to `CNC(=O)c1cnc(NC(=O)C2CC2)cc1Nc1cn(C)c2ccn(C(C)C)c(=O)c12` [Example 50, 6-(Cyclopropanecarboxamido)-4-((5-isopropyl-1-methyl-4-oxo-4,5-dihydro-1H-pyrrolo[3,2-c]pyridin-3-yl)amino)-N-methylnicotinamide], the GI50 was 371 nM.
With `[2H]C([2H])([2H])NC(=O)c1cnc(NC(=O)C2CC2)cc1Nc1ccc2cnn(C3CC3)c2c1OC` [Example 143, 6-(Cyclopropanecarboxamido)-4-((1-cyclopropyl-7-methoxy-1H-indazol-6-yl)amino)-N-(methyl-d3)nicotinamide], the GI50 worked out at 108 nM.
For `[2H]C([2H])([2H])NC(=O)c1cnc(Nc2ccc(F)cn2)cc1Nc1cn(C)c2c(Cl)cn(C([2H])([2H])[2H])c(=O)c12` [Example 170, 4-((7-Chloro-1-methyl-5-(methyl-d3)-4-oxo-4,5-dihydro-1H-pyrrolo[3,2-c]pyridin-3-yl)amino)-6-((5-fluoropyridin-2-yl)amino)-N-(methyl-d3)nicotinamide], the GI50 worked out at 27.6 nM.
The result for `[2H]C([2H])([2H])NC(=O)c1cnc(NC(=O)[C@H]2C[C@@H](C#N)C2)cc1Nc1ccc2cnn(CC)c2c1OC` [Example 128A, 6-((Cis)-3-cyanocyclobutane-1-carboxamido)-4-((1-ethyl-7-methoxy-1H-indazol-6-yl)amino)-N-(methyl-d3)nicotinamide] reads 736 nM; that for `CNC(=O)c1cnc(NC(=O)C2CC2)cc1Nc1cn(C)c2ncn([C@H](C)C(F)(F)F)c(=O)c12` (single isomer, unassigned) [Example 234A, (R*)-6-(cyclopropanecarboxamido)-N-(methyl-d3)-4-((7-methyl-4-oxo-3-(1,1,1-trifluoropropan-2-yl)-4,7-dihydro-3H-pyrrolo[2,3-d]pyrimidin-5-yl)amino)nicotinamide], 96.2 nM.
On to `CCn1ncc2ccc(Nc3ccnc(NC(=O)C4CC4)c3)c(OC)c21` [Example 237, N-(4-((1-ethyl-7-methoxy-1H-indazol-6-yl)amino)pyridin-2-yl)cyclopropanecarboxamide], for which the GI50 was found to be 4070 nM.
Under `[2H]C([2H])([2H])NC(=O)c1cnc(Nc2cc(C)c(F)cn2)nc1Nc1cccc(-c2ncn(C)n2)c1OC` [Example 59, 2-((5-Fluoro-4-methylpyridin-2-yl)amino)-4-((2-methoxy-3-(1-methyl-1H-1,2,4-triazol-3-yl)phenyl)amino)-N-(methyl-d3)pyrimidine-5-carboxamide] stands 1930 nM; under `CNC(=O)c1nnc2cc1Nc1cc(cc(-c3ncn(C)n3)c1OC)CN(C)Cc1cccc(n1)N2` [Example 32, 10-Methoxy-N,15-dimethyl-11-(1-methyl-1,2,4-triazol-3-yl)-2,4,5,8,15,21-hexazatetracyclo[15.3.1.13,7.19,13]tricosa-1(21),3(23),4,6,9,11,13(22),17,19-nonaene-6-carboxamide], 856 nM.

The values are drawn from patent publication US20250115597A1, “TYK2 INHIBITORS AND COMPOSITIONS AND METHODS THEREOF” (LYNK PHARMACEUTICALS CO. LTD., priority 2021, published 2025).
